“Also recorded” adds a separate entry of the source.
Assays:
[1] = system: visual chromophore regeneration in C57BL6J mouse eyes; assay: visual chromophore recovery assay (ocular 11-cis-retinal by HPLC after bleach); assay type: in vivo
Experimental: FIG. 4 illustrates inhibition of visual chromophore regeneration in C57BL6J mouse eyes by MB compounds. The MB drugs were administrated to mice by oral gavage 24 h prior to light exposure for 10 min. Then all mice recovered under darkness for 6 h.
Abca4^−/−Rdh8^−/− mice on a C57BL/6J background were generated as previously described. Male and female WT mice with C57BL/6J backgrounds were obtained from The Jackson Laboratory. Abca4^−/−Rdh8^−/− mice used in this study were homozygous for the Leu450 allele of Rpe65 as determined by a genotyping protocol published previously and free of Crb1/rd8 and rd/rd mutations Animals were housed either in the animal facility at the Case Western Reserve University School of Medicine, where they received a standard chow diet (LabDiet 5053) and were maintained under a 12-h light (˜300 lux) and 12-h dark cycle or at the Cole Eye Institute animal facility where they were. Mice were dark adapted overnight prior to all experiments. A cohort of Rdh8^−/−Abca4^−/− or C57BL/6J mice was used when they reached the age of 1 to 2 months, and both sexes were used evenly. All tested primary amines were suspended in 100 μl soybean oil with less than 10% (v/v) DMSO and were administered by oral gavage with a 22-gauge feeding needle. Experimental manipulations in the dark were done under dim red light transmitted through a Kodak No. 1 Safelight Filter (transmittance >560 nm).
After bright light exposure resulting in photoactivation of 95% of rhodopsin, mice were kept in the dark for 6 h. Then, the animals were euthanized and their eyes were collected and homogenized in 10 mM sodium phosphate buffer, pH 7.4, containing 50% methanol (v/v) and 40 mM hydroxylamine. The resulting mixture was extracted with 4 ml of hexanes.
Next, we tested the effects of the MB compound series on retinoid cycle function in the living mouse. […] After the light treatment, mice were allowed to dark adapt for 6 h before their ocular retinoid content was determined by HPLC. […] To examine the possibility that the lack of MB-008 efficacy at 24 h was due to insufficient concentrations resulting from a shorter elimination half-life or poorer bioavailability, we repeated the experiment with the mice subjected to light exposure 4 h after MB-008 administration. A 100 μg dose of MB-008 suppressed visual chromophore regeneration by ˜80%, supporting the idea that the retinal concentration of MB-008 could be sub-effective at the longer post-treatment light challenge.

[2] = identification of atRAL Schiff base conjugates with MB compounds in mouse eyes; assay type: in vivo; conditions: Abca4−/−Rdh8−/− mice, 50 mg/kg oral gavage, bright light exposure 10 min; mass spectrometry versus standards
Experimental: FIGS. 6(A-B) illustrate identification of retinal Schiff base conjugates in Abca4^−/− Rdh8^−/− mice treated with MB-005 and MB-006. Following drug administration, mice were exposed to intense light for 10 min. After a 30 min recovery under darkness, animals were sacrificed and retinoids were extracted from the eyes. (A, B) Shown in the top panels are selective ion chromatograms for MB-005-retinal conjugates (A, at m/z=572.6) and MB-006-retinal conjugates (B, at m/z=588.6). Panels on the bottom show the mass spectra of the peaks coinciding with the retention times of their authentic standards. The insets display the MS/MS fragmentation patterns of the two imines, which were identical to the corresponding standards.
MB-005 or MB-006 (50 mg/kg) were administrated by oral gavage to Abca4^−/−Rdh8^−/− mice 24 h prior to light exposure. After exposure to fluorescent light for 10 min, animals were euthanized and their eyes were collected and homogenized in acetonitrile. After centrifugation, the supernatant was concentrated to 400 μl under vacuum. […]
With the effects of these compounds on visual cycle function established we next sought to examine their ability to form retinal-Schiff base conjugates in vivo. […] Retinoids were extracted and analyzed by mass spectrometry. […]

RPE65 = RPE65 (Bos taurus, UniProt Q28175); assay: in vitro retinoid isomerase activity assay with bovine RPE microsomes; conditions: up to concentrations of 50 μM
Sequence of RPE65 (Q28175 whole entry): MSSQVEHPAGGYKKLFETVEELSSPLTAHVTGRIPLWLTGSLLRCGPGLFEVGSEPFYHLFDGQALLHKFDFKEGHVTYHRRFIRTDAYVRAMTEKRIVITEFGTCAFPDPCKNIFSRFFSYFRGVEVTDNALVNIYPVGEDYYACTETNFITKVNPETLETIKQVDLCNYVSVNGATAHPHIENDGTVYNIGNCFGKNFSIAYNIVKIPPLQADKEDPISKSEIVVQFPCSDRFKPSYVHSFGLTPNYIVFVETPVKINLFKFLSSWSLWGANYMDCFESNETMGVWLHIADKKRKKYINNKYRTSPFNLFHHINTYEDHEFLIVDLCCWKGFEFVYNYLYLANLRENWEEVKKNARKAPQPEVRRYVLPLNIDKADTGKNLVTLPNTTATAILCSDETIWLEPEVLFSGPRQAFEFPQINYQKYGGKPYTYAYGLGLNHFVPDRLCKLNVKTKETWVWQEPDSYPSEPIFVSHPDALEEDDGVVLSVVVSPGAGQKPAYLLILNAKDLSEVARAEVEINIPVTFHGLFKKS
Experimental: Primary amines were pre-incubated with bovine RPE microsomes at room temperature for 5 min, then all-trans-retinol was added and the mixtures were incubated at 37° C. All incubation mixtures were quenched by the addition of methanol after 1 h of incubation. Inhibition of RPE65 enzymatic activity was measured as a decline in 11-cis-retinol production.
Synthesized primary amine (1 μl in DMF, with the final concentration ranging between 50 nM and 50 μM) was added to 10 mM Bis-Tris propane/HCl buffer, pH 7.4, containing 150 μg RPE microsomes, 1% BSA, 1 mM disodium pyrophosphate, and 20 μM aporetinaldehyde-binding protein 1 (CRALBP). The resulting mixture was pre-incubated at room temperature for 5 min. Then, all-trans-retinol (1 μl in DMF, at a final concentration of 20 μM) was added. The resulting mixture was incubated at 37° C. for 1 h. The reaction was quenched by adding 300 μl methanol, and products were extracted with 300 μl hexanes. Production of 11-cis-retinol was quantified by normal-phase HPLC with 10% (v/v) EtOAc in hexanes as the eluent at a flow rate of 1.4 ml/min. Retinoids were detected by monitoring their absorbance at 325 nm and quantified based on a standard curve representing the relationship between the amount of synthetic 11-cis-retinol standard and the area under the corresponding chromatographic peak.
To test these structural predictions, we examined the inhibitory activity of the compounds against RPE65 activity in an in vitro retinoid isomerase assay using bovine RPE microsomes as the enzyme source.

**Q.** Which results are given for `CC(C)c1cc(OCC2CCCCC2)cc(C(O)CCN)c1` (stereo not shown) [MB-005, 3-Amino-1-(3-(cyclohexylmethoxy)-5-isopropylphenyl)propan-1-ol]?
**A.** effect on 11-cis-retinal recovery / visual cycle function ([1]; 500 μg (0.5 mg/mouse) oral gavage 24 h before light exposure, 6 h dark): minimal effects; also recorded: no measurable effect; visual cycle function ([1]; 2 mg/mouse oral gavage): severely impaired; fold greater inhibition of visual cycle function at 4 h versus 24 h ([1]; 4 h versus 24 h between dose and light): ~3 fold; effect of shortening the time between drug administration and the light challenge ([1]; shorter interval versus 24 h): enhanced the inhibitory effects; inhibition of 11-cis-retinal recovery (suppression of visual chromophore regeneration) ([1]; two-fold higher dose than 500 μg (1 mg per mouse), oral gavage 24 h before light exposure): ~50% and approximately 60%; retinal Schiff base adducts in eye extracts [2]: contained compounds matching the expected molecular weight of the respective Schiff base adducts; inhibition against retinoid isomerization (RPE65): minimal or no inhibition

Source: US12144788B2, “Visual cycle modulators” (CASE WESTERN RESERVE UNIVERSITY, priority 2017, dated 2024)
